Measured values as given in US20090012183A1, “Composition comprising polyphenol” (Conopco, Inc. d/b/a Unilever, priority 2007, published 2009).

How the values were obtained:
rat aorta = details: cited from earlier work; for vasorelaxing effect: Chen and Pace Asciak, Gen. Pharmac. 27(2), 363-366 (1996)
[1] = tested on: 2nd order mesenteric artery side branches; experiment: Reactivity of isolated arteries: dilator effect during contraction induced by 40 mmol/L K+; parameters: species or system Spontaneously Hypertensive Rats (SHR)
Method: Segments of 2nd order mesenteric artery side branches were isolated from 14 weeks old male Spontaneously Hypertensive Rats (SHR). Two stainless-steel wires (diameter 40 μm) were inserted in the lumen of the arterial segments, which were then mounted in organ chambers between an isometric force transducer and a displacement device (Danish Myotechnology by J. P. Trading, Denmark). The organ chambers were filled with Krebs-Ringer bicarbonate solution which was maintained at 37° C. and continuously aerated with 95% O2 and 5% CO2. Before the actual experiments started, arterial segments were stretched to their individual optimal lumen diameter for mechanical performance, i.e. the diameter at which maximal contractile responses to noradrenaline ([…]) were obtained. In each experiment four second order mesenteric resistance arterial segments from one animal were mounted in individual organ chambers and studied in parallel. At the start of the experiments, all four arterial preparations were incubated during 20 min with capsaicin (1 μmol/L) to persistently desensitize sensory-motor nerves and to obtain a stable and considerable contractile response to potassium (K^+, 40 mmol/L). During all the experiments superoxide dismutase (SOD, 5 U/ml) was present, to preserve stability of the metabolites. We tested the effects of the 35 different phenolic compounds using a Plackett-Burman screening design. The experiment consisted of 5 separate saturated 8 run Plackett-burman designs. Each design contained a subset of 7 phenolic compounds (Factors): One of the compounds tested was trans-resveratrol (in this case compound 30). […] In this way, the effects of different exposure times to the mixtures (7, 30 and 90 min) on K+-induced contraction, could be evaluated. […] Effects of increasing concentrations of the solvent and of the mixes (0.1 to 100 umol/L) during contractile responses to 40 mmol/L K+, were calculated as % change of the level of pre-contraction. […]

SMILES	vasorelaxing effect (rat aorta)	EC50 ([1]; Rattus norvegicus, isolated SHR mesenteric resistance arteries precontracted with 40 mmol/L K+, found by comparing mixtures (Plackett-Burman design), corrected for DMSO solvent, read-out: EC50 of dilation of the arteries) [µM]	influence on the dilation of the arteries ([1]; at a low concentration, comparison of different mixtures)	concentration at which the maximum dilatation was obtained ([1]; isolated SHR mesenteric resistance arteries precontracted with 40 mmol/L K+, mixtures tested 0.1-100 umol/L) [µM]	relaxation of the rat aorta (rat aorta; Fitzpatrick et al, Am. J. physiol. 265, H774-H778, 1993)
O=c1c(O)c(-c2ccc(O)c(O)c2)oc2cc(O)cc(O)c12 [quercitin]	vasorelaxing effect	–	–	–	–
Oc1ccc(C=Cc2cc(O)cc(O)c2)cc1 [trans-resveratrol, 3,5,4′-trihydroxystilbene]	–	11.6	significant influence	100	–
Oc1ccc(C=Cc2cc(O)cc(O)c2)cc1 [resveratrol]	vasorelaxing effect	–	–	–	did not relax
